# Test results published in US8148347B2, “Inhibition of interaction of PSD93 and PSDS95 with nNOS and NMDA receptors” (The Johns Hopkins University, priority 2000, dated 2012).
# Experiments:
# Male Sprague-Dawley rats = test: blood pressure and heart rate during isoflurane anesthesia; type: in vivo, rat
# Excerpt: On the fifth day after saline or ODNs injection, each rat was placed in a clear plastic cone and anesthetized with 5% isoflurane in oxygen for three to five minutes. After tracheostomy, the trachea of each animal was intubated with a 16-gauge polyethylene catheter. The inspired isoflurane concentration was reduced to 2%, and the animals breathed spontaneously until cannulation of a carotid artery and a jugular vein with PE-50 tubing was accomplished. The isoflurane concentration was decreased further to 1.5%, and ventilation was controlled by a Harvard Animal Respirator (Harvard Apparatus, South Natick, Mass.) adjusted according to the measurement of arterial blood gases to maintain normal partial pressure of oxygen (PO2=91-94 mmHg), partial pressure of carbon dioxide (PCO2=33-41 mmHg) and pH (7.4-7.44). Electrocardiography and systolic and diastolic blood pressure were monitored using a Grass Polygraph (Astroumed Grass, Quincy, Mass.) and Gould Pressure Transducer (Gould, Cleveland, Ohio). Rectal temperature was maintained between 36.5 and 37.5° C. by use of a heating blanket and warming lights.
# In some saline-treated rats, after initial baseline MAC determination, NMDA at the dose of 1.25 μg^38 or saline was injected intrathecally in a volume of 10 μl saline, followed by an injection of 10 μl saline to flush the catheter. Fresh NMDA solution was prepared for each experiment. […] At this isoflurane concentration, 10 min after the intrathecal injection of NMDA, the animals were tested again for reactivity to tail clamp. The concentration of isoflurane was increased, and response to tail clamp was checked every 12-15 min thereafter until a negative response was achieved. In some antisense ODN (50 μg)-treated rats, after initial MAC determination, NMDA or saline was also administered intrathecally. The MAC for isoflurane was again determined following the aforementioned procedures.
# PSD-95/SAP90 = test: immunoblot of PSD-95/SAP90 expression in spinal cord of OND-treated rats; type: in vivo, rat
# Excerpt: Antisense ONDs, widely used as research tools and even as drugs in clinical trials, inhibit protein expression by the mechanisms of (1) steric blockade of ribosomal subunit attachment to mRNA at the 5′ cap site; (2) interference with proper mRNA splicing through antisense binding to splice donor or splice acceptor sites; (3) Rnase-H-mediated degradation of hybridized mRNA.^18 To further examine whether the action of antisense OND for PSD-95/SAP90 above was specifically due to selective decrease or lack of PSD-95/SAP90 but not other proteins in the spinal cord, we detected PSD-95/SAP90, NMDA receptor subunits 2A/2B (NR2A/2B), neuronal nitric oxide synthase (nNOS) and SAP-102 in homogenates from crude lumbar enlargement segments in the normal, saline-treated (control) and OND-treated rats. […]
# Animal preparation and behavioral testing. […] Nociception was evaluated by the radiant heat tail-flick test. The doses and time point of maximal effect of NMDA used in the present study were determined based on a previous study.^24 The tail-flick apparatus (Model 33B Tail Flick Analgesy Meter, IITC Life Science, Woodland Hills, Calif., USA) generated a beam of radiant heat that was focused on the underside of the tail, 5 cm from the tip. […] Nociception was assessed by the time required to induce tail-flick after applying radiant heat to the skin of the tail. […]
# [1] = pretreated with 50 μg antisense ODN, intrathecal NMDA 1.25 μg
Substance,"BP Diastolic (Male Sprague-Dawley rats; 50 μg, before the tail clamp) [mmHg]","BP Systolic (Male Sprague-Dawley rats; 50 μg, before the tail clamp) [mmHg]","Heart rate (Male Sprague-Dawley rats; 50 μg, before the tail clamp) [beats/min]",PSD-95/SAP90 protein in the postsynaptic density (PSD) fraction of the spinal cord (PSD-95/SAP90; FIGS. 1Aa and b),"BP Diastolic (Male Sprague-Dawley rats; 12.5 μg, before the tail clamp) [mmHg]","BP Systolic (Male Sprague-Dawley rats; 12.5 μg, before the tail clamp) [mmHg]","Heart rate (Male Sprague-Dawley rats; 12.5 μg, before the tail clamp) [beats/min]","BP Diastolic (Male Sprague-Dawley rats; 25 μg, before the tail clamp) [mmHg]","BP Systolic (Male Sprague-Dawley rats; 25 μg, before the tail clamp) [mmHg]","Heart rate (Male Sprague-Dawley rats; 25 μg, before the tail clamp) [beats/min]",Heart rate (Male Sprague-Dawley rats; [1]) [beats/min],diastolic blood pressure (Male Sprague-Dawley rats; [1]) [mmHg],systolic blood pressure (Male Sprague-Dawley rats; [1]) [mmHg],"PSD-95/SAP90 expression (PSD-95/SAP90; spinal cord, after intrathecal treatment (FIG. 1Ab))"
"5′-AAGCCCTTGTTCCCATTT-3′ (DNA, backbone and methylation of C not given here; listed as Rattus rattus) [MS, missense OND control, reference compound]",105.75 ± 11.40,121.33 ± 15.84,524.70 ± 44.90,enriched,,,,,,,,,,
"5′-TGTGATCTCCTCATACTC-3′ (DNA, backbone and methylation of C not given here; listed as Rattus rattus) [antisense oligonucletide corresponding to the PDZ domain nucleotides 241 to 258 of rat PSD-95/SAP90 mRNA]",112.50 ± 11.20,129.58 ± 11.73,514.20 ± 62.20,,112.58 ± 7.14,127.58 ± 11.72,534.80 ± 29.13,105.83 ± 7.89,122.75 ± 10.81,541.20 ± 16.70,553±17,117.00±6.35,138.00±5.77,< 15 % of control
